In paper PMC12974487, “Inhibition of FicD-mediated AMPylation and deAMPylation by isoprenoid diphosphates” (Proceedings of the National Academy of Sciences of the …, 2026):
Numbering of substitutions follows the chain as printed.

Legend:
Assay type in all cases: binding
[1] = biological target: T1, FicD^E234G (Homo sapiens, UniProt Q9BVA6, E234G); assay: MIDAS metabolite screen, FicD^E234G; details: cutoff Q < 0.05 and |Log2 corrected fold change| > 2, metabolites 5 µM
T1 construct: soluble ER luminal domain (residues 105 to 458) of wild-type human FicD and three mutants; 6xHis-Sumo (N, cleaved yes); made in house; host or cells: Rosetta(DE3) E. coli
T1 sequence (Q9BVA6 105-458 E234G): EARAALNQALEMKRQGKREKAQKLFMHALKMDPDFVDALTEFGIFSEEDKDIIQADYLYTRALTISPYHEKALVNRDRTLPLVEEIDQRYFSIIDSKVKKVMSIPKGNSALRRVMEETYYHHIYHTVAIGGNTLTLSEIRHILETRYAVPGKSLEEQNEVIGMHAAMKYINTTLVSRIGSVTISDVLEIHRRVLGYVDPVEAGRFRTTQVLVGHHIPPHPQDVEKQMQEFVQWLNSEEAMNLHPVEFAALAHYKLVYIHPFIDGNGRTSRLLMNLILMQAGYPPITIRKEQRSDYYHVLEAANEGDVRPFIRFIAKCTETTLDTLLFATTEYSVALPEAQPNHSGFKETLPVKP

[2] = biological target: T2, FicD^WT (Homo sapiens, UniProt Q9BVA6); assay: MIDAS equilibrium dialysis/mass spectrometry metabolite screen, FicD^WT; details: cutoff Q < 0.05 and |Log2 corrected fold change| > 2, metabolites 5 µM
T2 construct: soluble ER luminal domain (residues 105 to 458) of wild-type human FicD; 6xHis-Sumo (N, cleaved yes); made in house; host or cells: Rosetta(DE3) E. coli
T2 sequence (Q9BVA6 105-458): T1 sequence (Q9BVA6 105-458 E234G) with G130E

[3] = biological target: T3, FicD^L258D (Homo sapiens, UniProt Q9BVA6, L258D); assay: Differential scanning fluorimetry (DSF) thermal shift with FicD^L258D
T3 construct: soluble ER luminal domain (residues 105 to 458) of wild-type human FicD and three mutants; 6xHis-Sumo (N, cleaved yes); made in house; host or cells: Rosetta(DE3) E. coli
T3 sequence (Q9BVA6 105-458 L258D): T1 sequence (Q9BVA6 105-458 E234G) with G130E, L154D
Protocol: Differential Scanning Fluorimetry
Thermal shift assays were performed in Biorad CfX384 Touch Real-Time PCR Detection System […]
Reactions contained 50mM HEPES pH 7.4, 200mM NaCl, 200mM KCl, 200uM DTT, 5X Invitrogen Sypro Orange (Cat no. S6650), 8-9μM protein, and indicated nucleotide, cofactor, or small molecule in a total volume of 20uL. For every experiment ‘no protein’ controls were also included with the same reaction conditions. All reactions were performed in technical triplicates. Sealed plates containing reaction mixes were centrifuged for 1-5 min at 1000 RPM prior to temperature scanning (FRET channel), which was performed from 6°C […]
DSF data was analyzed with traditional methods automated in a Python package (https://pypi.org/project/instawell/). Briefly, for each temperature, the RFU values of technical triplicates are averaged. For each timepoint, the background fluorescence was subtracted using the RFU values of the ‘no protein’ control. […]
calculated. The melting temperature (Tm) is defined as the first derivative peak value. Data

[4] = biological target: T3, FicD^L258D; assay: MIDAS metabolite screen, FicD^L258D; details: cutoff Q < 0.05 and |Log2 corrected fold change| > 2, metabolites 5 µM
Excerpt: To identify small-molecule metabolite interactions with FicD, we applied an unbiased high-throughput screening approach known as MIDAS ([44]). Given the high concentrations of protein required for MIDAS screening, we purified the soluble ER luminal domain (residues 105 to 458) of wild-type human FicD and three mutants FicD^E234G, FicD^L258D, and FicD^H363A for screening (Fig. 1A). These mutants were selected based on their well-established biochemical features ([23], [24], [31]). All three are predicted to enhance detection of protein–metabolite interactions (PMIs) relative to FicD^WT through increased affinity for nucleotide substrates (FicD^E234G), improved solubility (FicD^L258D), and loss of catalytic turnover (FicD^H363A) (Fig. 1A). To decrease the potential for nonspecific small-molecule binding, we ensured the purity of our FicD proteins (SI Appendix, Fig. S1 A and B). As reported by other investigators ([24], [31]), we observe an increase in elution volume of the FicD^L258D mutant, consistent with its monomerization (SI Appendix, Fig. S1C).
Out of the 602 naturally occurring human metabolites in the MIDAS library, we applied a significance cutoff (q value < 0.05) to identify 12 PMIs with a Log2 (corrected fold change) of >2 and two PMIs with a Log2 (corrected fold change) <-2 in the FicD^WT screen (Fig. 1B and SI Appendix, Table S2). Hits were additionally triaged based on detection of multiple adducts of the metabolite in a single dataset (FPP and […] in Fig. 1B) and identification of the same metabolites across three or more of the FicD construct screens (Fig. 1C). Three chemical classes passed this initial triage: adenosine nucleotides, isoprenoid diphosphates, and thyroid hormone intermediates (Fig. 1 B and C and SI Appendix, Tables S2–S5).
22°C. Induced cultures were then harvested by centrifugation at 8000G for 15 minutes at 4°C and […]
Bacterial pellets were resuspended in 30-50mL of 50mM Tris pH 7.4/150mM NaCl/10% glycerol with one Roche cOmplete EDTA-Free Protease inhibitor cocktail tablet (cat no. COEDTAF-RO).
Triton-X100 to a final concentration of 0.2%, Chicken-egg lysozyme to a final concentration of 0.4ug/mL, and 2-5uL of Millipore Benzonase Nuclease (cat no. 70664) were added to bacterial suspension prior to sonication at 40-50% amplitude for 1-3 minutes in pulses of 5 seconds on and 30 seconds off on ice with a Sonics VCX 750 Ultrasonicator. Bacterial lysate was then clarified by centrifugation at 30,000 x g for 30 minutes at 4°C.
Clarified lysate was rotated with Qiagen NiNTA agarose beads (cat no. 30210) for 1-2 hours at 4°C. The beads were then transferred to a 15mL conical vial, resuspended in 10-15mL wash buffer (50mM Tris pH 7.4/150mM NaCl/10% glycerol/0.2% Triton-X 100/10mM imidazole), and spun down at 1000G for 1 minute at 4°C, after which the supernatant was aspirated from the beads. This washing step was repeated 2-4 times to rinse bacterial lysate from the beads prior to on-column washing. The beads were then transferred to BioRad Econopac 20mL bed volume column (cat no.
7321010) and washed with 10-15mL of wash buffer (repeated at least three times), 10mL of ATP wash (50mM Tris pH 7.4/300mM KCl/10mM MgCl2/500uM ATP, repeated once), and finally with 10-15mL wash buffer without Triton-X 100 (repeated at least three times). Protein was eluted in 500μL-1mL elution buffer (50mM Tris pH 7.5/150mM NaCl/10% glycerol/0.5% CHAPS). […]

Molecule	MIDAS protein-metabolite interaction (enrichment/depletion) [1]	MIDAS protein-metabolite interaction (enrichment/depletion) [2]	maximal Tm shift at saturating ligand concentration ([3]; FicD^L258D, 5 mM MgCl2)	EC50 ([3]; FicD^L258D, 5 mM MgCl2, read-out: EC50 of DSF dose-response (ΔTm)) [µM]	binding to FicD^L258D by DSF ([3]; absence of MgCl2)	binding to FicD^L258D by DSF ([3]; presence of 5 mM MgCl2)	MIDAS protein-metabolite interaction (enrichment/depletion) [4]
Nc1ncnc2c1ncn2[C@H]1C[C@H](O)[C@@H](COP(=O)(O)OP(=O)(O)OP(=O)(O)O)O1 [dATP]	significantly enriched	significantly enriched	~ 7 °C	530	did not bind	binding	did not pass the significance cutoff
deoxyadenosine diphosphate [dADP]	significantly enriched	significantly enriched	~ 11 °C	–	did not bind	binding	significantly enriched
